Laboratory results taken from patent publication US12624018B1, “Inhibitors of RIPK2 and medical uses thereof” (Odyssey Therapeutics, Inc., priority 2022, dated 2026).
Read-outs that look alike come from different tables or passages of the source.

What was measured:
RIPK2 enzyme = biological target: T1, RIPK2 enzyme (Homo sapiens, UniProt O43353); test: RIPK2 inhibition (ADP-Glo Kinase Assay); format: biochemical; conditions: RIPK2 5 nM, ATP 150 μM, MBP substrate, read-out: RIPK2 IC50
T1 construct: purchased Carna 09-128
Summary of the method: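 Swine MBP substrate; compound and 5 nM RIPK2 first mixed for 30 min at room temperature; buffer pH 7.5 HEPES 50 mM with 10 mM MgCl2, 2 mM DTT, 1 mM EGTA, Brij-35, BSA.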

human NOD2 signaling = test: Inhibition of human NOD2 signaling in HEK-Blue-hNOD2 cells (L18-MDP stimulated, SEAP reporter); format: cell-based
Summary of the method: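 Read-out is SEAP absorbance at 620 nm after 3 h QUANTI-Blue development of supernatant from HEK293 cells carrying NOD2 and a SEAP reporter (12500/well). Cells got compound (10 points, 3-fold dilutions) and 0.5 ng/mL L18-MDP for 24 h at 37 °C; percent inhibition vs stimulated/unstimulated controls, 4-parameter IC50.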

[1] = biological target: T2, RIPK2 and XIAP protein-protein interaction (Homo sapiens, UniProt O43353); test: Inhibition of the interaction of RIPK2 with XIAP (NanoBRET in HEK293T cells); format: cell-based; conditions: for IC50: RIPK2 HaloTag / XIAP NanoLuc, read-out: NanoBRET Scaffolding IC50
T2 construct: the N-terminus of full-length RIPK2 was appended with the HaloTag fusion protein; expressed in transfected cells; host or cells: HEK293T
Source text: An assay measuring the RIPK2 and XIAP protein-protein interaction was generated using the NanoBRET protein:protein interaction system (Promega) which measures the energy transfer from a bioluminescent protein donor (NanoLuc fusion protein) to a fluorescent protein acceptor (Halotag fusion protein). In this assay, the C-terminus of full-length XIAP was appended with the NanoLuc fusion protein and the N-terminus of full-length RIPK2 was appended with the HaloTag fusion protein. Assay medium consisted of Opti-MEM I reduced serum medium with no phenol red plus 4% heat inactivated FBS. Transfection reagents were combined in a microfuge tube as follows: 400 μL of assay medium, 8 μL of vector with N-terminus of RIPK2 HaloTag fusion protein (vector concentration at 1 μg/μL), 0.8 μL of vector with C-terminus of XIAP NanoLuc fusion protein (vector concentration at 1 μg/μL), and 24 μL of FuGENE HD transfection reagent (Promega, catalogue number E2312). […] Test compounds were prepared into a 10 mM DMSO solution and were serially diluted into 10 points using a 3-fold dilution in a 384 well plate using a TECAN EV0200.
Method: HEK293T cells were transfected with the RIPK2 HaloTag fusion and XIAP NanoLuc fusion vectors in suspension. […] Transfection reagents were pre-mixed and incubated at room temperature for 30 minutes. Then the total transfection reagent mixture was added dropwise to the 16 mL cell suspension and mixed gently. 40 μL of the cells and transfection reagent suspension was plated into a white 384 well plate and incubated at 37° C. in a CO2 incubator for 24 hours. […] Lastly, a 3× solution of NanoBRET Nano-Glo substrate in Opti-MEM I reduced serum media (no phenol red; 20 μL total volume) was added to each well and incubated for 2-3 minutes at room temperature. The plate was then measured using 460 nm filter (donor emission) and 618 nm filter (acceptor emission) in an EnVision multimode plate reader (PerkinElmer). The NanoBRET ratio values were determined by dividing the acceptor emission value by the donor emission value for each sample.

[2] = Homo sapiens, HEK-Blue hNOD2, HEK-Blue-hNOD2 cells, NOD2 ligand stimulation, SEAP reporter, read-out: hNOD2 IC50
[3] = HEK-Blue-hNOD2 cells, NOD2 ligand stimulation, SEAP reporter, read-out: hNOD2 IC50

T2 sequence (O43353 whole entry, the tested form may be a part): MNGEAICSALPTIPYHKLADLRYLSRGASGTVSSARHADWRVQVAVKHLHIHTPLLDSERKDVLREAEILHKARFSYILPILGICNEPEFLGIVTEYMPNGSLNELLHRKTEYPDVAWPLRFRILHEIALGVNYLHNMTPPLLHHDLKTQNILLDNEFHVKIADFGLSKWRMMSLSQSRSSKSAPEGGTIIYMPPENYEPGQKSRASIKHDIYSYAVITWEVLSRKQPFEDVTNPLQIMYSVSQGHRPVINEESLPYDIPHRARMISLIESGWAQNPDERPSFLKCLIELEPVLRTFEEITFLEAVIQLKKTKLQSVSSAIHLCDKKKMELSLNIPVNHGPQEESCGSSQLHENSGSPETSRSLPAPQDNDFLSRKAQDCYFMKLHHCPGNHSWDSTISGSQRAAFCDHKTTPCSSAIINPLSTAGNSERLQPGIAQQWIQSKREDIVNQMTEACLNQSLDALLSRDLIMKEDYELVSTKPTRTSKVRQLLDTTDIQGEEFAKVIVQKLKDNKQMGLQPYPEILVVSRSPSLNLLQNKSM
T1 sequence (O43353 1-299 limits assumed): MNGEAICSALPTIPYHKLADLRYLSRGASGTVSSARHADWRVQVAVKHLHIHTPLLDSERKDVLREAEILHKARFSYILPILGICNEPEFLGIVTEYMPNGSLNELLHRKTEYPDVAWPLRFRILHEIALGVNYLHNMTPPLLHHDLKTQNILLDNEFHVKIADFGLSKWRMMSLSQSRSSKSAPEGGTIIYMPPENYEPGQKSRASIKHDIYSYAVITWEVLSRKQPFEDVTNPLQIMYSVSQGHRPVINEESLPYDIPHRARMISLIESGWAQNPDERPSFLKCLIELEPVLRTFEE

SMILES | IC50 (RIPK2 enzyme) [nM] | IC50 (human NOD2 signaling; [2]) [nM] | IC50 [1] [nM] | IC50 (human NOD2 signaling; [3]) [nM] | IC50 (human NOD2 signaling; Homo sapiens, HEK-Blue hNOD2, 24 h, HEK-Blue-hNOD2 cells, L18-MDP 0.5 ng/mL, 24 h, read-out: hNOD2 inhibition IC50) [nM] | inhibition of the RIPK2 and XIAP protein-protein interaction ([1]; NanoBRET)
Cc1cc(CC(=O)Nc2cnn(C(C)(C)C)c2)c(F)cc1Oc1ccnc2ccc(S(=N)(=O)C3CC3)cc12 (single isomer, unassigned) [Compound 466, N-(1-(tert-butyl)-1H-pyrazol-4-yl)-2-(4-((6-(cyclopropane-sulfonimidoyl)quinolin-4-yl)oxy)-2-fluoro-5-methylphenyl) acetamide] | < 2.5 | 2.5 | 48 |  |  | 
Cc1cc(CC(=O)Nc2cnn(C(C)(C)C)c2)c(F)cc1Oc1ccnc2ccc(S(=N)(=O)C3CC3)cc12 (single isomer, unassigned) [Compound 467, N-(1-(tert-butyl)-1H-pyrazol-4-yl)-2-(4-((6-(cyclopropane-sulfonimidoyl)quinolin-4-yl)oxy)-2-fluoro-5-methylphenyl) acetamide] | < 2.5 |  | 30.2 | 1.7 |  | 
[2H]C([2H])([2H])NC(=O)c1ccc2nccc(Oc3cc(F)c(CC(=O)Nc4cnn(C56CC(C5)C6)c4)cc3C([2H])([2H])[2H])c2c1 (single isomer, unassigned) [Compound 512, 4-(4-(2-((1-(bicyclo[1.1.1]pentan-1-yl)-1H-pyrazol-4-yl)amino)-2-oxoethyl)-5-fluoro-2-(methyl-d3)phenoxy)-N-(methyl-d3)quinoline-6-carboxamide] | < 2.5 | 2.4 | 57.6 |  |  | 
Cc1cc(CC(=O)Nc2cnn(C34CC(C3)C4)c2)ccc1Oc1ccnc2ccc(S(=N)(=O)C3CC3)cc12 (single isomer, unassigned) [Compound 529, N-(1-(bicyclo[1.1.1]pentan-1-yl)-1H-pyrazol-4-yl)-2-(4-((6-(cyclopropanesul-fonimidoyl)quinolin-4-yl)oxy)-3-methylphenyl) acetamide] | < 2.5 | 14.3 | 75 |  |  | 
Cc1cc(CC(=O)Nc2cnn(C34CC(C3)C4)c2)ccc1Oc1ccnc2ccc(S(=N)(=O)C3CC3)cc12 (single isomer, unassigned) [Compound 530, N-(1-(bicyclo[1.1.1]pentan-1-yl)-1H-pyrazol-4-yl)-2-(4-((6-(cyclopropanesul-fonimidoyl)quinolin-4-yl)oxy)-3-methylphenyl) acetamide] | < 2.5 |  | 94.3 | 21.5 |  | 
Cc1cc(CC(=O)Nc2cnn(C(C)(C)C)c2)ccc1Oc1ccnc2ccc(S(=N)(=O)C(C)C)cc12 (single isomer, unassigned) [Compound 547, N-(1-(tert-butyl)-1H-pyrazol-4-yl)-2-(3-methyl-4-((6-(propan-2-ylsulfonimidoyl)quinolin-4-yl)oxy)phenyl) acetamide] | < 2.5 | 1.3 | 153 |  |  | 
Cc1cc(CC(=O)Nc2cnn(C(C)(C)C)c2)ccc1Oc1ccnc2ccc(S(=N)(=O)C(C)C)cc12 (single isomer, unassigned) [Compound 548, N-(1-(tert-butyl)-1H-pyrazol-4-yl)-2-(3-methyl-4-((6-(propan-2-ylsulfonimidoyl)quinolin-4-yl)oxy)phenyl) acetamide] | < 2.5 |  | 108 | 0.9 |  | 
Cc1cc(CC(=O)Nc2cnn(C(C)(C)C)c2)ccc1Oc1ccnc2ccc(S(=N)(=O)C3CCC3)cc12 (single isomer, unassigned) [Compound 551, N-(1-(tert-butyl)-1H-pyrazol-4-yl)-2-(4-((6-(cyclobutanesulf-onimidoyl)quinolin-4-yl)oxy)-3-methylphenyl) acetamide] | < 2.5 | 1.7 | 87.1 |  |  | 
Cc1cc(CC(=O)Nc2cnn(C(C)(C)C)c2)ccc1Oc1ccnc2ccc(S(=N)(=O)C3CCC3)cc12 (single isomer, unassigned) [Compound 552, N-(1-(tert-butyl)-1H-pyrazol-4-yl)-2-(4-((6-(cyclobutane-sulfonimidoyl)quinolin-4-yl)oxy)-3-methylphenyl) acetamide] | < 2.5 |  | 60.9 | 1.7 |  | 
[2H]C([2H])([2H])NC(=O)c1ccc2nccc(Oc3cc(F)c(CC(=O)Nc4cnn(C(C)(C)C)c4)c(F)c3C)c2c1 (single isomer, unassigned) [Compound 555, 4-(4-(2-((1-(tert-butyl)-1H-pyrazol-4-yl)amino)-2-oxoethyl)-3,5-difluoro-2-methylphenoxy)-N-(methyl-d3)quinoline-6-carboxamide] | < 2.5 | 0.1 | 7.3 |  |  | 
[2H]C([2H])([2H])NC(=O)c1ccc2nccc(Oc3cc(F)c(CC(=O)Nc4cnn(C56CC(C5)C6)c4)cc3C)c2c1 (single isomer, unassigned) [Compound 563, 4-(4-(2-((1-(bicyclo[1.1.1]pentan-1-yl)-1H-pyrazol-4-yl)amino)-2-oxoethyl)-5-fluoro-2-methylphenoxy)-N-(methyl-d3)quinoline-6-carboxamide] | < 2.5 | 1.9 | 176 |  |  | 
Cc1cc(CC(=O)Nc2cnn(C(C)(C)C)c2)c(F)cc1Oc1ccnc2ccc(C(=O)N3[C@H](C)CNC[C@@H]3C)cc12 [Compound 470, N-(1-(tert-butyl)-1H-pyrazol-4-yl)-2-(4-((6-((2R,6S)-2,6-dimethylpiperazine-1-carbonyl)quinolin-4-yl)oxy)-2-fluoro-5-methylphenyl)acetamide] | < 2.5 | 1.1 | 13.1 |  |  | 
Cc1cc(CC(=O)Nc2cnn(C(C)(C)C)c2)c(F)cc1Oc1ccnc2ccc(C(=O)N3C[C@@H]4C[C@H]3CN4)cc12 [Compound 471, 2-(4-((6-((1S,4S)-2,5-diazabicyclo[2.2.1]heptane-2-carbonyl)quinolin-4-yl)oxy)-2-fluoro-5-methylphenyl)-N-(1-(tert-butyl)-1H-pyrazol-4-yl)acetamide] | < 2.5 | 9.9 | 1020 |  |  | 

The remaining lines, values ahead:

IC50 (RIPK2 enzyme) [nM] | IC50 (human NOD2 signaling; [2]) [nM] | IC50 [1] [nM] | IC50 (human NOD2 signaling; [3]) [nM] | IC50 (human NOD2 signaling; Homo sapiens, HEK-Blue hNOD2, 24 h, HEK-Blue-hNOD2 cells, L18-MDP 0.5 ng/mL, 24 h, read-out: hNOD2 inhibition IC50) [nM] | inhibition of the RIPK2 and XIAP protein-protein interaction ([1]; NanoBRET) | SMILES
< 2.5 | 0.5 | 7.5 |  |  |  | CC(C)(C)n1cc(NC(=O)Cc2cc(Cl)c(Oc3ccnc4ccc(S(=O)(=O)C5CC5)cc34)cc2F)cn1 [Compound 464, N-(1-(tert-butyl)-1H-pyrazol-4-yl)-2-(5-chloro-4-((6-(cyclopropylsulfonyl)quinolin-4-yl)oxy)-2-fluorophenyl)acetamide]
< 2.5 | 1.6 | 6.6 |  |  |  | CNC(=O)c1ccc2nccc(Oc3c(C)cc(CC(=O)Nc4cnn(C(C)(C)C)c4)cc3F)c2c1 [Compound 469, 4-(4-(2-((1-(tert-butyl)-1H-pyrazol-4-yl)amino)-2-oxoethyl)-2-fluoro-6-methylphenoxy)-N-methylquinoline-6-carboxamide]
< 2.5 | 7.8 | 171 |  |  |  | Cc1cc(CC(=O)Nc2cnn(C(C)(C)C)c2)cc(Cl)c1Oc1ccnc2ccc(S(C)(=O)=O)cc12 [Compound 473, N-(1-(tert-butyl)-1H-pyrazol-4-yl)-2-(3-chloro-5-methyl-4-((6-(methylsulfonyl)quinolin-4-yl)oxy)phenyl)acetamide]
8.1 | 95.6 | 621 |  |  |  | Cc1cc(CC(=O)Nc2cnn(C(C)(C)C)c2)c(Cl)cc1Oc1ccnc2ccc(S(C)(=O)=O)cc12 [Compound 474, N-(1-(tert-butyl)-1H-pyrazol-4-yl)-2-(2-chloro-5-methyl-4-((6-(methylsulfonyl)quinolin-4-yl)oxy)phenyl)acetamide]
 |  |  |  | > 10000 | no inhibition | CC(C)(C)S(=O)(=O)c1cc2c(Nc3ccc4scnc4c3)ncnc2cc1OCCOP(=O)(O)O [GSK 2983559, reference compound]
